{
  "source": "patent US5516756A",
  "about": "“Aza cyclohexapeptide compounds” (Merck & Co., Inc., priority 1994, dated 1996)",
  "key": {"[1]": {"system": "Candida albicans (MY 1055)", "assay_type": "cell-based", "details": "MY 1055, 24 h", "protocol": "(§1) The compounds of the present invention are active against many fungi and particularly against Candida species. The antifungal properties may be illustrated with the minimum fungicidal concentration (MFC) determination against certain Candida organisms in a microbroth dilution assay carded out in a Yeast Nitrogen Base (DIFCO) medium with 1% dextrose (YNBD).\n(§2) In a representative assay, compounds were solubilized in 100% dimethyl sulfoxide (DMSO) at an initial concentration of 5 mg/ml. Once dissolved, the drug stock was brought to a concentration of 512 μg/ml by dilution in water such that the final DMSO concentration was about 10 percent. The solution was then dispensed via a multichannel pipetter into the first column of a 96-well plate (each well containing 0.075 ml of YNBD), resulting in a drug concentration of 256 μg/ml. Compounds in the first column were diluted 2-fold across the rows yielding final drug concentration ranging from 256 μg/ml to 0.12 μg/ml.\n(§3) Four-hour broth cultures of organisms to be tested were adjusted using a spectrophotometer at 600 nm to equal a 0.5 McFarland Standard. This suspension was diluted 1:100 in YNBD to yield a cell concentration of 1-5×10^4 colony forming units (CFU)/ml. Aliquots of the suspension (0.075 ml) were inoculated into each well of the microtiter plate resulting in a final cell inoculum of 5-25×10^3 CFU/ml and final drug concentrations ranging from 128 μg/ml to 0.06 μg/ml. Each assay included one row for drug-free control wells and one row for cell-free control wells.\n(§4) After 24 hours of incubation, the microtiter plates were shaken gently on a shaker to resuspend the cells. The MIC-2000 inoculator was used to transfer a 1.5 microliter sample from each well of the 96-well microtiter plate to a single reservoir inoculum plate containing Sabouraud dextrose agar (SDA). The inoculated SDA plates were incubated for 24 hours at 35° C. and then read for minimum fungicidal concentration (MFC). MFC is defined as the lowest concentration of drug showing no growth or less than 4 colonies per spot. […]"}, "[2]": {"system": "Candida parapsilosis (MY 1010)", "assay_type": "cell-based", "details": "MY 1010, 24 h", "protocol": "as §1, §2, §3, §4"}, "[3]": {"system": "Candida tropicalis (MY 1012)", "assay_type": "cell-based", "details": "MY 1012, 24 h", "protocol": "as §1, §2, §3, §4"}, "Candida albicans MY 1055": {"system": "Candida albicans MY 1055", "assay": "In vivo effectiveness: kidney CFU in mice infected I.V. with Candida albicans", "details": "0.07 mg/kg i.p. twice daily for four consecutive days; female DBA/2 mice; CFU per gram of kidneys after seven days", "protocol": "The in vivo effectiveness of the compounds against fungi may be seen in the following assay.\nGrowth from an overnight SDA culture of Candida albicans MY 1055 was suspended in sterile saline and the cell concentration determined by hemacytometer count and the cell suspension adjusted to 3.75×10^5 cells/ml. Then 0.2 milliliter of this suspension was administered I.V. in the tail vein of mice so that the final inoculum is 7.5×10^4 cells/mouse.\nThe assay was then carried out by administering aqueous solutions of Compound I at various concentrations intraperitoneally (I.P.), twice daily (b.i.d.) for four consecutive days to 18 to 20 gram female DB A/2 mice, which previously had been infected with Candida albicans (MY 1055) in the manner described above. Distilled water was administered I.P. to C. albicans challenged mice as controls. After seven days, the mice were sacrificed by carbon dioxide gas, paired kidneys were removed aseptically and placed in sterile polyethylene bags containing 5 milliliters of sterile saline. The kidneys were homogenized in the bags, serially diluted in sterile saline and aliquots spread on the surface of SDA plates. The plates were incubated at 35° C. for 48 hours and yeast colonies enumerated for determination of colony forming units (CFU) per gram of kidneys. […]"}},
  "data": [
    {"smiles": "CCC(C)CC(C)CCCCCCCCC(=O)N[C@H]1C[C@@H](O)[C@@H](NC(=O)[C@@H](N)CN)NC(=O)[C@@H]2[C@@H](O)CCN2C(=O)[C@H]([C@H](O)CCN)NC(=O)[C@H]([C@H](O)[C@@H](O)c2ccc(O)cc2)NC(=O)[C@@H]2C[C@@H](O)CN2C(=O)[C@H]([C@@H](C)O)NC1=O", "note": "(stereo partly shown) [Compound I]", "values": [
      {"measurement": "minimum fungicidal concentration (MFC)", "setting": "[1]", "result": 1, "unit": "µg/mL"},
      {"measurement": "minimum fungicidal concentration (MFC)", "setting": "[2]", "result": 0.5, "unit": "µg/mL"},
      {"measurement": "minimum fungicidal concentration (MFC)", "setting": "[3]", "result": 1, "unit": "µg/mL"},
      {"measurement": "reduction of recoverable Candida CFUs", "setting": "Candida albicans MY 1055", "result": "greater than 99%"}
    ]}
  ]
}
